Paper PMC8921294, “Inhibition of mitochondrial LonP1 protease by allosteric blockade of ATP binding and hydrolysis via CDDO and its derivatives” (The Journal of Biological Chemistry, 2022)
Numbering of substitutions follows the chain as printed.

What was measured:
LonP1 C637V = biological target: T1, LonP1 C637V (Homo sapiens, UniProt P36776, C637V); experiment: Endpoint ATPase assay, LonP1 C637V; type: biochemical
T1 construct: hexa-histidine (N); made in house; host or cells: Rosetta 2 E. coli
T1 sequence (P36776 68-959 C637V): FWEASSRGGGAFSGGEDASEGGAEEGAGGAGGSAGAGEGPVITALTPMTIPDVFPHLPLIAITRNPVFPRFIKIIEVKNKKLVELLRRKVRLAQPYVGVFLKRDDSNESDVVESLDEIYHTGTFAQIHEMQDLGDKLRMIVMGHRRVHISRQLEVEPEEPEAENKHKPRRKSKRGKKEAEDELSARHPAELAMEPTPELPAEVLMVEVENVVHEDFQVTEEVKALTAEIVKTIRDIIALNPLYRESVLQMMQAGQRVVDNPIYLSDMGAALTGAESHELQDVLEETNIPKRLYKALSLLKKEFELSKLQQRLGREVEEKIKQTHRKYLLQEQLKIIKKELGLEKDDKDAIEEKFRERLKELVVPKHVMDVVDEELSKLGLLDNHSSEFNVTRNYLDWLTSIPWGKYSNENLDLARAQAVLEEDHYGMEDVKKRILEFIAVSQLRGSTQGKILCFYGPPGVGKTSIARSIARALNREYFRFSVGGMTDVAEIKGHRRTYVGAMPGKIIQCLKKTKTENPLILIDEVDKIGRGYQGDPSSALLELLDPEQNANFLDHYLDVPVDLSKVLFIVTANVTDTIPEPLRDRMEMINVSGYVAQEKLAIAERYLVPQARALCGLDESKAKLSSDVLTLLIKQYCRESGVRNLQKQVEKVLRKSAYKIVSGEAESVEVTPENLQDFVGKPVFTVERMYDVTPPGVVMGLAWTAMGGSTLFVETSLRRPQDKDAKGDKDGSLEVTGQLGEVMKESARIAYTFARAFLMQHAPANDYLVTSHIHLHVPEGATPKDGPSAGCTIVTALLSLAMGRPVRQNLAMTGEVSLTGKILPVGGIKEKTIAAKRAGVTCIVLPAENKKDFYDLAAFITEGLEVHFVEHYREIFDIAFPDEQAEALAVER
Procedure: (§1) Human mitochondrial LonP1 and mutants lacking the predicted mitochondrial targeting sequence were fused to an N-terminal hexa-histidine affinity tag, expressed in Rosetta 2 E. Coli, and purified using a nickel agarose column as previously described ([72]) and protein concentration and buffer exchange carried out using Amicon Ultra centrifugal filtration. LonP1 mutant constructs were obtained from the PCR-based QuikChange Site-Directed Mutagenesis Kit.
(§2) ADP-Glo (Promega) assays were performed according to the manufacturer's protocols. Purified wild-type or mutant LonP1 (400 nM monomer), the 26S proteasome (3 nM), or no enzyme controls were preincubated in 96-well plates (60 min, 25 °C) with ten different concentrations of CDDO and its derivatives, TP-82, enoxolone (5 μM) or DMSO vehicle control in buffer (40 mM Tris-HCl (pH 7.5), 20 mM MgCl2, 0.1 mg/ml BSA and 5% DMSO). The 26S and 20S proteasome were also assayed at 0, 0.75, 1.5, 3, 6, and 12 nM in the absence of CDDO derivatives. […] Assay reagents were used to quench further ATPase activity and generate luminescence signals proportional to the concentration of ADP formed. Background (no enzyme control) luminescence values were subtracted, and resultant values were reported as a percentage of the no drug control (100%). […]

LonP1 F547A/C576V = biological target: T2, LonP1 F547A/C576V (Homo sapiens, UniProt P36776, C576V/F547A); experiment: Endpoint ATPase assay, LonP1 F547A/C576V; type: biochemical
T2 construct: hexa-histidine (N); made in house; host or cells: Rosetta 2 E. coli
T2 sequence (P36776 68-959 F547A/C576V): T1 sequence (P36776 68-959 C637V) with F480A, C509V, V570C
Procedure: as §1, §2

SMILES: CC1(C)CC[C@]2(C(=O)O)CC[C@]3(C)[C@H](C(=O)C=C4[C@@]5(C)C=C(C#N)C(=O)C(C)(C)[C@@H]5CC[C@]43C)[C@@H]2C1 [CDDO, 2-cyano-3,12-dioxooleana-1,9(11)-dien-28-oic acid]
- Fold increase in inhibition compared with WT (LonP1 C637V): 3.8
- IC50 (LonP1 C637V; end-point ATPase assay, N = 1, read-out: CDDO IC50): 3700 nM
- Fold increase in inhibition compared with WT (LonP1 F547A/C576V): 7.8
- IC50 (LonP1 F547A/C576V; end-point ATPase assay, read-out: CDDO IC50): 1800 ± 800 nM
